# Experimental data from PubChem BioAssay (NCI).
#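 96-well plates; 48 h exposure; 5 concentrations. Endpoints by linear interpolation between flanking doses. Not reached: highest tested concentration assigned. GI50 is the concentration that inhibits growth by half. TGI is the concentration that stops growth completely.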
# Legend:
# Assay in all cases: NCI tumour cell line growth inhibition, 48 h
# U251 CNS = tested on: U251 CNS
# OVCAR-5 ovarian = tested on: OVCAR-5 ovarian
# MDA-MB-435 = tested on: MDA-MB-435
# ACHN renal = tested on: ACHN renal
# SNB-75 CNS = tested on: SNB-75 CNS
# SK-MEL-2 melanoma = tested on: SK-MEL-2 melanoma
# BT-549 breast = tested on: BT-549 breast
# NCI-H460 lung = tested on: NCI-H460 lung
# HCT-15 colon = tested on: HCT-15 colon
# K-562 leukemia = tested on: K-562 leukemia
Compound,TGI (U251 CNS),TGI (OVCAR-5 ovarian),TGI (MDA-MB-435),TGI (ACHN renal),TGI (SNB-75 CNS),TGI (SK-MEL-2 melanoma),TGI (BT-549 breast),TGI (NCI-H460 lung),TGI (HCT-15 colon),TGI (K-562 leukemia),GI50 (U251 CNS),GI50 (OVCAR-5 ovarian),GI50 (K-562 leukemia),GI50 (SK-MEL-2 melanoma),GI50 (BT-549 breast),GI50 (NCI-H460 lung),GI50 (HCT-15 colon)
COC(=O)C1CCN(C(=O)OC(C)(C)C)CC1,> 100 µM,> 100 µM,> 100 µM,> 100 µM,> 100 µM,> 100 µM,> 100 µM,> 100 µM,> 100 µM,,,,,,,,
C1CSCCSCCCSC2CCCCC2SC1 (configuration not stated),> 100 µM,> 100 µM,> 100 µM,,> 100 µM,,> 100 µM,> 100 µM,> 100 µM,> 100 µM,,,,,,,
Cc1c[n+]2c3ccccc3c3ccccc3c2s1,12.3 µM,12.8 µM,,> 100 µM,12.1 µM,25.7 µM,,25.5 µM,> 100 µM,44.5 µM,,,,,,,
Nc1ccc2[nH]c(-c3cccc(C(F)(F)F)c3)cc(=O)c2c1,> 100 µM,> 100 µM,88.6 µM,> 100 µM,96.9 µM,,> 100 µM,> 100 µM,> 100 µM,,,,,,,,
CSC1NC(c2ccccc2)=C(C#N)C(=O)N1C1OCC(OC(C)=O)C(OC(C)=O)C1OC(C)=O (configuration not stated),> 100 µM,> 100 µM,> 100 µM,> 100 µM,> 100 µM,,> 100 µM,> 100 µM,> 100 µM,> 100 µM,,,,,,,
COc1cc2c(c(OC)c1OC)-c1ccc(SC)c(=O)cc1C(CC(=O)Oc1cccc([N+](=O)[O-])c1)C2 (configuration not stated),,> 100 µM,,> 100 µM,0.71 µM,> 100 µM,,8.13 µM,2.24 µM,> 100 µM,,,,,,,
COCCN(CCNC(=O)c1cccc2c(N)c3cccc(C)c3nc12)CCOC,> 63.6 µM,15.6 µM,11 µM,13.5 µM,4.75 µM,18.7 µM,20.3 µM,7.11 µM,13 µM,,,,,,,,
CC1(c2sccc2Cl)CC(c2sccc2Cl)=C(C#N)C(=C(C#N)C#N)N1 (configuration not stated),33.8 µM,41.7 µM,48.3 µM,32.5 µM,,39.3 µM,32.3 µM,43.6 µM,35 µM,,,,,,,,
O=C(CN(C(=O)OC12CC3CC(CC(C3)C1)C2)C(=O)OC12CC3CC(CC(C3)C1)C2)Oc1ccc([N+](=O)[O-])cc1,> 100 µM,> 100 µM,> 100 µM,> 100 µM,> 100 µM,,> 100 µM,> 100 µM,> 100 µM,> 100 µM,,,,,,,
CNC(=O)NCNC(=O)NC,> 100 µM,> 100 µM,,,> 100 µM,> 100 µM,,> 100 µM,> 100 µM,> 100 µM,,,,,,,
CC1CN=C(NS(=O)(=O)c2cc(C(=O)Nc3ccc(Cl)cc3)c(Cl)cc2S)NN1 (configuration not stated),> 100 µM,> 100 µM,73.1 µM,> 100 µM,,71.2 µM,> 100 µM,> 100 µM,> 100 µM,> 100 µM,,,,,,,
Cc1c(C)c(C)c(Cn2[nH]c(=O)n(C)c2=O)c(C)c1C,> 100 µM,,> 100 µM,> 100 µM,> 100 µM,> 100 µM,> 100 µM,> 100 µM,> 100 µM,> 100 µM,,,,,,,
CCC(C)C(N)C(=O)NC(CC(N)=O)C(=O)NC(CC(C)C)C(=O)NC(CCCCN)C(=O)NC(C)C(=O)NC(CC(C)C)C(=O)NC(C)C(=O)NC(C)C(=O)NC(CC(C)C)C(=O)NC(C)C(=O)NC(CCCCN)C(=O)NC(CCCCN)C(=O)NC(C(=O)NC(CC(C)C)C(N)=O)C(C)CC (configuration not stated),30.9 µM,28 µM,,27.2 µM,14 µM,36.8 µM,,28.9 µM,31.8 µM,36.3 µM,,,,,,,
CCOC(=O)c1nc2ccc(C(F)(F)F)cc2nc1Nc1cc(OC)c(OC)c(OC)c1,,> 100 µM,> 100 µM,> 100 µM,> 100 µM,,> 100 µM,> 100 µM,> 100 µM,> 100 µM,,,,,,,
COc1cccc(/C=N/NC(=O)CSCC(=O)N/N=C/c2cccc(OC)c2OC)c1OC,> 100 µM,> 100 µM,> 100 µM,> 100 µM,> 100 µM,> 100 µM,,> 100 µM,> 100 µM,> 100 µM,,,,,,,
c1cc(-c2ccc(-c3ccc(-c4ccc(-c5ccncc5)o4)cc3)o2)ccn1,35.3 µM,55.6 µM,33.4 µM,64.6 µM,36.6 µM,,30.7 µM,35.3 µM,28.3 µM,39 µM,,,,,,,
COc1cc(C(=O)O[C@H](C(=O)NCCCNC(=O)[C@@H](OC(=O)c2cc(OC)cc3c(C)cccc23)[C@]2(C)CO2)[C@]2(C)CO2)c2cccc(C)c2c1,0.0206 µM,1.45 µM,0.503 µM,,0.381 µM,34.6 µM,2.29 µM,0.902 µM,0.723 µM,0.923 µM,< 0.01 µM,0.168 µM,< 0.0359 µM,0.137 µM,0.197 µM,< 0.019 µM,0.0444 µM
N#CCc1c(-c2ccccc2)n(S(=O)(=O)c2ccccc2)c2ccccc12,> 100 µM,> 100 µM,,> 100 µM,62 µM,> 100 µM,,> 100 µM,> 100 µM,> 100 µM,,,,,,,
Clc1cccc(-c2sc(-c3ccsc3)cc2Cc2ccsc2)c1,,,> 10 µM,,> 10 µM,,,,> 10 µM,> 10 µM,,,,,,,
CC(=O)Oc1cc(S(=O)(=O)Nc2n[nH]c(Nc3ccc(C)cc3)n2)c(S)cc1Cl,> 100 µM,> 100 µM,> 100 µM,> 100 µM,,> 100 µM,> 100 µM,> 100 µM,> 100 µM,> 100 µM,,,,,,,
COC(=O)c1c(C(=O)OC)c2ccccn2c1-c1cc(OC)c(Br)c(=O)o1,,> 100 µM,> 100 µM,> 100 µM,66.3 µM,> 100 µM,,> 100 µM,> 100 µM,> 100 µM,,,,,,,
CCOC(=O)CC(c1ccccc1)C(C)(C(=O)OCC)C(=O)OCC (configuration not stated),> 100 µM,> 100 µM,,> 100 µM,> 100 µM,> 100 µM,> 100 µM,> 100 µM,> 100 µM,> 100 µM,,,,,,,
COc1ccccc1Cc1ccc(C2C=CC3(CC(=O)C=C3C)C(=O)C2)o1 (configuration not stated),30.6 µM,> 100 µM,46.8 µM,> 100 µM,,30.8 µM,58.7 µM,> 100 µM,81.4 µM,50.1 µM,,,,,,,
